According to patent publication US10941379B2, “Microbial system for biosynthesis of natural and engineered products coupled to in situ extraction in supercritical CO2” (Massachusetts Institute of Technology, priority 2016, dated 2021):

Experiments:
Assay type in all cases: cell-based, Bacillus megaterium
B. megaterium SR7 [1] = test: SR7 antibiotic sensitivity in LB (OD600 vs unamended control); details: for % Control: (OD600 AB/OD600 Control)*100 in LB, average n = 2, 24 hours, 37° C.; for Sensitivity: LB
Protocol: To help guide optimization of growth conditions for strain SR7, physiological tests were conducted under aerobic conditions. To determine tolerance for pH, salinity and bicarbonate, high throughput culturing was done in 96 well plates and scored for growth by OD600 using a microplate reader (BioTek Synergy 2; BioTek; Winooski, Vt.). 200 uL LB solutions/well were inoculated in triplicate with 10^4 spores/ml (based on SR7 spore stock filter counts) and incubated on a plate rocker at 37° C. with unamended positive and cell-free negative LB controls. Tests for pH tolerance (pH 2-10) were conducted in LB medium amended with HCl or NaOH. The effect of salinity and bicarbonate on growth was determined by adding NaCl (1-10%) and NaHCO3 (0.1-0.5M), respectively, to LB media. Optimal SR7 growth temperature was tested by inoculating 10^4 spores/ml in 5 ml of LB in triplicate at temperatures of 9-55° C. Cultures and cell-free negative controls were incubated without shaking, with subsamples taken for periodic OD600 measurements. SR7 antibiotic sensitivity was determined by supplementing 5 ml LB with ampicillin (5-50 μg/ml), chloramphenicol (3.5-35 μg/ml), kanamycin (5-50 μg/ml), spectinomycin (10-100 μg/ml), streptomycin (10-100 μg/ml), or tetracycline (1.5-15 μg/ml).

B. megaterium SR7 [2] = test: Biolog GenIII sole carbon source growth; details: for Growth on Biolog sole carbon source, SR7: no metals added, Table 10; for Growth in carbon source Biolog plate, +Metals: trace metals-amended plate; for Growth in carbon source Biolog plate, +Metals / Growth in carbon source Biolog plate, I / Growth in carbon source Biolog plate, II: Table 11; for Growth in carbon source Biolog plate, I: unamended plate trial I; for Growth in carbon source Biolog plate, II: unamended plate trial II
Protocol: (§1) Plates were incubated at 37° C. on a plate shaker at 200 rpm and assayed for growth using NADH-dependent colorimetric changes measured by OD490 on a microplate reader (BioTek Synergy 2; BioTek; Winooski, Vt.).

B. megaterium DSM319 = test: Biolog GenIII sole carbon source growth; details: no metals added; Table 10
Protocol: as §1

B. megaterium QM B1551 = test: Biolog GenIII sole carbon source growth; details: no metals added; Table 10
Protocol: as §1

B. megaterium SR7 [3] = test: Biolog GenIII Microplate growth sensitivity assay; details: for % Control: (OD490 AB/OD490 Control)*100 for Biolog, average n = 2, Biolog does not publish concentrations; for Sensitivity: Biolog, concentration not published; for SR7 growth inhibition in Biolog assays: result in words; for sensitivity: key: S = sensitive; R = resistant
Protocol: as §1

Row | SMILES | Growth on Biolog sole carbon source, SR7 (B. megaterium SR7 [2]) | Growth in carbon source Biolog plate, +Metals (B. megaterium SR7 [2]) | Growth in carbon source Biolog plate, I (B. megaterium SR7 [2]) | Growth in carbon source Biolog plate, II (B. megaterium SR7 [2]) | Growth on Biolog sole carbon source, DSM319 (B. megaterium DSM319) | Growth on Biolog sole carbon source, QM B1551 (B. megaterium QM B1551) | % Control (B. megaterium SR7 [3]) [%] | Sensitivity (B. megaterium SR7 [3]) | further results
1 | CC1(C)S[C@@H]2[C@H](NC(=O)[C@H](N)c3ccccc3)C(=O)N2[C@H]1C(=O)O [Ampicilin] |  |  |  |  |  |  |  |  | % Control (B. megaterium SR7 [1]; 50 ug/mL): 8%; Sensitivity (B. megaterium SR7 [1]; 50 ug/mL): S
2 | OC[C@@H](O)[C@@H](O)[C@H](O)[C@H](O)CO [D-Mannitol] | + | + | + | + | +++ | + |  |  | 
3 | CO[C@H]1C[C@H](O[C@H]2[C@H](C)[C@@H](O[C@@H]3O[C@H](C)C[C@H](N(C)C)[C@H]3OC(C)=O)[C@@H](C)C[C@@]3(CO3)C(=O)[C@H](C)[C@@H](OC(C)=O)[C@@H](C)[C@@H](C)OC(=O)[C@@H]2C)O[C@@H](C)[C@@H]1OC(C)=O [Troleandomycin] |  |  |  |  |  |  | 9 | S | 
4 | C[C@H](O)C(=O)O [L-Lactic Acid] | + | + | + | + | +++ | +++ |  |  | 
5 | O=C(O)CC(Br)C(=O)O (centres unmarked) [Bromo-Succinic Acid] | + | + | + | + | +++ | + |  |  | 
6 | O=C(N[C@H](CO)[C@H](O)c1ccc([N+](=O)[O-])cc1)C(Cl)Cl [Chloramphenicol] |  |  |  |  |  |  |  |  | % Control (B. megaterium SR7 [1]; 35 ug/mL): 9%; Sensitivity (B. megaterium SR7 [1]; 35 ug/mL): S
7 | [H]/N=C(/N)N[C@H]1[C@H](O)[C@@H](O)[C@H](O[C@@H]2O[C@@H](C)[C@](O)(C=O)[C@H]2O[C@@H]2O[C@@H](CO)[C@H](O)[C@@H](O)[C@@H]2NC)[C@@H](N/C(N)=N\[H])[C@@H]1O [Streptomycin] |  |  |  |  |  |  |  |  | % Control (B. megaterium SR7 [1]; 10 ug/mL): 10%; Sensitivity (B. megaterium SR7 [1]; 10 ug/mL): S
8 | OC[C@H]1O[C@H](O)[C@H](O)[C@@H](O)[C@@H]1O [α-D-Glucose] | + | +++ | + | + | +++ | + |  |  | 
9 | OC[C@H]1O[C@@](CO)(O[C@H]2O[C@H](CO)[C@@H](O)[C@H](O)[C@H]2O)[C@@H](O)[C@@H]1O [Sucrose] | − | + | − | + | +++ | + |  |  | 
10 | O=C(O)C[C@H](O)C(=O)O [L-Malic Acid] | +++ | + |  | +++ | +++ | +++ |  |  | 
11 | CCC[C@@H]1C[C@@H](C(=O)N[C@@H]([C@H]2O[C@H](SC)[C@H](O)[C@@H](O)[C@H]2O)[C@@H](C)O)N(C)C1 [Lincomycin] |  |  |  |  |  |  | 11 | S | 
12 | CN(C)c1ccc(O)c2c1C[C@H]1C[C@H]3[C@H](N(C)C)C(O)=C(C(N)=O)C(=O)[C@@]3(O)C(O)=C1C2=O [Minocycline] |  |  |  |  |  |  |  | S | 
13 | N[C@@H](CCC(=O)O)C(=O)O [L-Glutamic Acid] | + | +++ | + | + | +++ | +++ |  |  | 
14 | N[C@@H](CC(=O)O)C(=O)O [L-Aspartic Acid] | + | +++ | + | + | +++ | + |  |  | 
15 | CC(=O)N[C@H]1C(O)O[C@H](CO)[C@@H](O)[C@@H]1O (stereo partly drawn) [N-Acetyl-D-Glucosamine] | + |  | + | + | +++ | + |  |  | 
16 | CN[C@@H]1[C@H](O)[C@H](NC)[C@H]2O[C@@]3(O)C(=O)C[C@@H](C)O[C@H]3O[C@@H]2[C@H]1O [Spectinomycin] |  |  |  |  |  |  |  |  | % Control (B. megaterium SR7 [1]; 100 ug/mL): 47%; Sensitivity (B. megaterium SR7 [1]; 100 ug/mL): S/R; SR7 sensitivity to antibiotics (B. megaterium SR7 [1]; result in words, summary of Table 9): intermediate sensitivity
17 | CC(=O)O[C@H]1C[C@@]2(C)[C@@H](C[C@@H](O)[C@H]3[C@@]4(C)CC[C@@H](O)[C@@H](C)[C@@H]4CC[C@@]32C)/C1=C(\CCC=C(C)C)C(=O)O [Fusidic Acid] |  |  |  |  |  |  | 9 | S | 
18 | CN(C)[C@@H]1C(O)=C(C(N)=O)C(=O)[C@@]2(O)C(O)=C3C(=O)c4c(O)cccc4[C@@](C)(O)[C@H]3C[C@@H]12 [Tetracycline] |  |  |  |  |  |  |  |  | % Control (B. megaterium SR7 [1]; 1.5 ug/mL): 11%; Sensitivity (B. megaterium SR7 [1]; 1.5 ug/mL): S
19 | NC[C@H]1O[C@H](O[C@H]2[C@H](O)[C@@H](O[C@H]3O[C@H](CO)[C@@H](O)[C@H](N)[C@H]3O)[C@H](N)C[C@@H]2N)[C@H](O)[C@@H](O)[C@@H]1O [Kanamycin] |  |  |  |  |  |  |  |  | % Control (B. megaterium SR7 [1]; 5 ug/mL): 9%; Sensitivity (B. megaterium SR7 [1]; 5 ug/mL): S
20 | N[C@H](CO)C(=O)O [D-Serine, reference compound] |  | − | − | − |  |  | 10 | S | SR7 growth inhibition in Biolog assays (B. megaterium SR7 [3]): inhibited
21 | CO[C@H]1/C=C/O[C@@]2(C)Oc3c(C)c([O-])c4c(O)c(cc(O)c4c3C2=O)NC(=O)/C(C)=C\C=C\[C@H](C)[C@H](O)[C@@H](C)[C@@H](O)[C@@H](C)[C@H](OC(C)=O)[C@@H]1C.[Na+] [Rifamycin SV] |  |  |  |  |  |  | 11 | S | 
22 | N[C@@H](Cc1c[nH]cn1)C(=O)O [L-Histidine] | + | + | + | + | +++ | + |  |  | 
23 | CC(O)CC(=O)O (racemic) [β-Hydroxy-D,L-Butyric Acid] | + | + | + | + | + | +++ |  |  | 
24 | O=C(O)[C@@H](O)[C@@H](O)[C@H](O)[C@@H](O)C(=O)O [D-Saccharic Acid] | − | − | − | + | − | +++ |  |  | 
25 | CN[C@H](CC(C)C)C(=O)N[C@H]1C(=O)N[C@@H](CC(N)=O)C(=O)N[C@H]2C(=O)N[C@H]3C(=O)N[C@H](C(=O)N[C@H](C(=O)O)c4cc(O)cc(O)c4-c4cc3ccc4O)[C@H](O)c3ccc(c(Cl)c3)Oc3cc2cc(c3O[C@@H]2O[C@H](CO)[C@@H](O)[C@H](O)[C@H]2O[C@H]2C[C@](C)(N)[C@H](O)[C@H](C)O2)Oc2ccc(cc2Cl)[C@H]1O [Vancomycin] |  |  |  |  |  |  | 10 | S | 
26 | CCn1cc(C(=O)O)c(=O)c2ccc(C)nc21 [Nalidixic Acid] |  |  |  |  |  |  | 14 | S | 
27 | CCCCC(CC)CCC(CC(C)C)OS(=O)(=O)[O-].[Na+] (centres unmarked) [Niaproof 4] |  |  |  |  |  |  | 9 | S | SR7 growth inhibition in Biolog assays (B. megaterium SR7 [3]): inhibited
28 | C[C@H]1[C@H](NC(=O)/C(=N\OC(C)(C)C(=O)O)c2csc(N)n2)C(=O)N1S(=O)(=O)O [Aztreonam] |  |  |  |  |  |  | 10 | S | 
29 | O=C(O)[C@]1(O)C[C@@H](O)[C@@H](O)[C@H](O)C1 [Quinic Acid] |  | − | − | + |  |  |  |  | 
